≈ marks a conversion by molar mass, not a printed value. Calls of active or inactive are those of the source. The calls are words filed in the database; no cut-off is given here. Peptide text beside a SMILES is read from it.
Tests used:
Enterococcus faecalis = experiment: Antimicrobial activity against multi-drug resistant Enterococcus faecalis assessed as reduction in bacterial growth by broth dilution method; type: functional
Escherichia coli [1] = experiment: Antimicrobial activity against Escherichia coli ATCC 25922 assessed as reduction in bacterial growth by broth dilution method; type: functional
Escherichia coli [2] = experiment: Antimicrobial activity against multi-drug resistant Escherichia coli assessed as reduction in bacterial growth by broth dilution method; type: functional
Klebsiella pneumoniae = experiment: Antimicrobial activity against multi-drug resistant Klebsiella pneumoniae assessed as reduction in bacterial growth by broth dilution method; type: functional
Acinetobacter baumannii = experiment: Antimicrobial activity against multi-drug resistant Acinetobacter baumannii assessed as reduction in bacterial growth by broth dilution method; type: functional
[3] = Hemolytic activity in human Red blood cell assessed as hemolysis incubated for 1 hrs by microplate reader based analysis; type: toxicity; conditions: erythrocyte
BEAS-2B = experiment: Cytotoxicity against human BEAS-2B cells at 2 to 256 uM measured after 24 hrs by CCK-8 method; type: toxicity, cell-based; conditions: dose 2-256 µM
HEK-293T = experiment: Cytotoxicity against HEK293T cells at 2 to 256 uM measured after 24 hrs by CCK-8 method; type: toxicity, cell-based; conditions: human, dose 2-256 µM
Staphylococcus aureus [4] = experiment: Antimicrobial activity against multi-drug resistant Staphylococcus aureus assessed as reduction in bacterial growth in presence of NaCl; type: functional, organism-based
Staphylococcus aureus [5] = experiment: Antimicrobial activity against multi-drug resistant Staphylococcus aureus assessed as reduction in bacterial growth in presence of FeCl3; type: functional, organism-based
Escherichia coli [6] = experiment: Antimicrobial activity against multi-drug resistant Escherichia coli assessed as reduction in bacterial growth in presence of NaCl; type: functional, organism-based
Escherichia coli [7] = experiment: Antimicrobial activity against multi-drug resistant Escherichia coli assessed as reduction in bacterial growth in presence of FeCl3; type: functional, organism-based
Staphylococcus aureus [8] = experiment: Antimicrobial activity against multi-drug resistant Staphylococcus aureus assessed as reduction in bacterial growth measured after 6 hrs in 25% plasma; type: functional, organism-based
[9] = Half life of the compound in 25% plasma; type: ADME, cell-free
Escherichia coli [10] = experiment: Antimicrobial activity against multi-drug resistant Escherichia coli assessed as reduction in bacterial growth at 2 times MIC measured after 1 hrs in presence of trypsin by microplate reader based analysis; type: functional, organism-based
Escherichia coli [11] = experiment: Antimicrobial activity against multi-drug resistant Escherichia coli assessed as reduction in bacterial growth at 2 times MIC measured after 1 hrs in presence of chymotrypsin by microplate reader based analysis; type: functional, organism-based
Staphylococcus aureus [12] = experiment: Antibacterial activity against Staphylococcus aureus ATCC 25923 at sub-inhibitory concentration measured after 15 passages for 18 hrs; type: functional
Staphylococcus aureus [13] = experiment: Bactericidal activity against multi-drug resistant Staphylococcus aureus assessed as eradication of bacterial growth at 2 times MIC by time-kill kinetic assay; type: functional, organism-based; conditions: time 120-720 min
Escherichia coli [14] = experiment: Bactericidal activity against multi-drug resistant Escherichia coli assessed as eradication of bacterial growth at 2 times MIC measured after 3 hrs by time-kill kinetic assay relative to control; type: functional
Cell membrane [15] = experiment: Disruption of cell membrane in multi-drug resistant Staphylococcus aureus assessed as appearance of ruptured cell membrane at 2 times MIC measured for 120 mins by transmission electron microscopy analysis; type: subcellular
Cell membrane [16] = experiment: Disruption of cell membrane in multi-drug resistant Staphylococcus aureus assessed as cell shrinkage at 2 times MIC measured for 120 mins by transmission electron microscopy analysis; type: subcellular
Cell membrane [17] = experiment: Disruption of cell membrane in multi-drug resistant Escherichia coli assessed as stomatal formation at 2 times MIC measured for 120 mins by transmission electron microscopy analysis; type: subcellular
Cell membrane [18] = experiment: Disruption of cell membrane in multi-drug resistant Escherichia coli assessed as appearance of ruptured cell membrane at 2 times MIC measured for 120 mins by transmission electron microscopy analysis; type: subcellular
Cell membrane [19] = experiment: Disruption of cell membrane in multi-drug resistant Escherichia coli assessed as release of cell content at 2 times MIC measured for 120 mins by transmission electron microscopy analysis; type: subcellular
Cell membrane [20] = experiment: Disruption of cell membrane in multi-drug resistant Escherichia coli assessed as increase in red fluorescence intensity of PI at 2 times MIC measured for 2 hrs by fluorescence confocal microscopic imaging based analysis; type: subcellular
Escherichia coli [21] = experiment: Bactericidal activity against multi-drug resistant Escherichia coli at 1 times MIC preincubated with LPS for 1 hrs followed by bacterial addition and measured after 18 hrs by microplate reader based analysis; type: functional, organism-based; conditions: time 19.0 hrs
Cell membrane [22] = experiment: Induction of cytoplasmic membrane depolarization in multi-drug resistant Escherichia coli at 1 to 4 times MIC measured within 1 min by DiSC3-5 fluorescent dye based analysis
Staphylococcus aureus [23] = experiment: Antibiofilm activity against multi-drug resistant Staphylococcus aureus measured after 24 hrs by crystal violet staining based analysis; type: functional, organism-based
Escherichia coli [24] = experiment: Antibacterial activity against Escherichia coli ATCC 25922 infected in male Kunming mouse model assessed as reduction in bacterial load measured after 11 days; type: functional, organism-based; conditions: time 11.0 day
Escherichia coli [25] = experiment: Antibiofilm activity in […] assessed as eradication of formed biofilm by measuring reduction in viable bacterial count measured after 12 hrs by confocal microscopy based analysis; type: functional, organism-based
Staphylococcus aureus [26] = experiment: Antibiofilm activity in methicillin-resistant Staphylococcus aureus assessed as eradication of formed biofilm at 1 to 4 times MIC measured after 12 hrs by confocal microscopy based analysis; type: functional, organism-based
Escherichia coli [27] = experiment: Antibiofilm activity in […] assessed as eradication of formed biofilm at 1 to 4 times MIC measured after 12 hrs by confocal microscopy based analysis; type: functional, organism-based
Staphylococcus aureus [28] = experiment: Additive antimicrobial activity against multi-drug resistant Staphylococcus aureus assessed as fractional inhibition concentration index in presence levofloxacin by microplate reader analysis; type: functional
Escherichia coli [29] = experiment: Antibacterial activity against multidrug resistant Escherichia coli infected in male Kunming mouse model assessed as recovery of mouse weight measured after 11 days; type: functional, organism-based; conditions: time 11.0 day
Escherichia coli [30] = experiment: Antibacterial activity against multidrug resistant Escherichia coli infected in male Kunming mouse model assessed as reduction in bacterial load measured after 11 days in presence of levofloxacin; type: functional, organism-based; conditions: time 11.0 day
Escherichia coli [31] = experiment: Antibacterial activity against multidrug resistant Escherichia coli infected in male Kunming mouse model assessed as recovery of mouse weight measured after 11 days in presence of levofloxacin; type: functional, organism-based; conditions: time 11.0 day
Escherichia coli [32] = experiment: Antibacterial activity against multidrug resistant Escherichia coli infected in male Kunming mouse model assessed as scabs thickening measured after 7 days in presence of levofloxacin by caliper method; type: functional, organism-based; conditions: time 7.0 day
Escherichia coli [33] = experiment: Antibacterial activity against multidrug resistant Escherichia coli infected in male Kunming mouse model assessed as scabs thickening measured after 7 days by caliper method; type: functional, organism-based; conditions: time 7.0 day
Escherichia coli [34] = experiment: Antibacterial activity against multidrug resistant Escherichia coli infected in male Kunming mouse model assessed as wound healing measured after 11 days in presence of levofloxacin by caliper method relative to control; type: functional; conditions: time 11 day
Escherichia coli [35] = experiment: Antibacterial activity against multidrug resistant Escherichia coli infected in male Kunming mouse model assessed as reduction in vascular congestion in presence of levofloxacin by H and E staining based analysis; type: functional, organism-based
Escherichia coli [36] = experiment: Antibacterial activity against multidrug resistant Escherichia coli infected in male Kunming mouse model assessed as reduction in tissue hemorrhage in presence of levofloxacin by H and E staining based analysis; type: functional, organism-based
Escherichia coli [37] = experiment: Antibacterial activity against multidrug resistant Escherichia coli infected in male Kunming mouse model assessed as reduction in inflammatory cell infiltration in presence of levofloxacin by H and E staining based analysis; type: functional, organism-based
Escherichia coli [38] = experiment: Antibacterial activity against multidrug resistant Escherichia coli infected in male Kunming mouse model assessed as reduction in IL-6 expression in presence of levofloxacin by immunochemical analysis; type: functional, organism-based

`CC[C@H](C)[C@H](NC(=O)[C@H](CCCCN)NC(=O)[C@@H](NC(=O)[C@H](CCCCN)NC(=O)[C@@H]1CCCN1C(=O)[C@H](Cc1c[nH]c2ccccc12)NC(=O)[C@H](Cc1c[nH]c2ccccc12)NC(=O)[C@H](Cc1c[nH]c2ccccc12)NC(=O)[C@@H]1CCCN1C(=O)[C@H](CCCCN)NC(=O)[C@@H](NC(=O)[C@H](CCCCN)NC(=O)[C@@H](NC(=O)[C@@H](N)CCCCN)[C@@H](C)CC)[C@@H](C)CC)[C@@H](C)CC)C(=O)N[C@@H](CCCCN)C(N)=O` (H-KIKIKPWWWPKIKIK-NH2) gave an MIC (Enterococcus faecalis) of 4 µM (≈ 7.97 µg/mL), an MIC (Escherichia coli [1]) of 4 µM (≈ 7.97 µg/mL) and an MIC (Escherichia coli [2]) of 4 µM (≈ 7.97 µg/mL). The MIC (Klebsiella pneumoniae) was 4 µM (≈ 7.97 µg/mL), the MIC (Acinetobacter baumannii) was 4 µM (≈ 7.97 µg/mL) and the HC10 [3] was greater than 256 µM. The Activity (BEAS-2B) was “Toxic”, the Activity (HEK-293T) was “Toxic” and the Activity (Staphylococcus aureus [4]) was “Active”. The Activity (Staphylococcus aureus [5]) was “Active”, the Activity (Escherichia coli [6]) was “Active” and the Activity (Escherichia coli [7]) was “Active”. For the same compound, the Activity (Staphylococcus aureus [8]) was “Active”, the half-life [9] was 75.5 h and the Activity (Escherichia coli [10]) was “inactive”. The Activity (Escherichia coli [11]) was “inactive”, the Activity (Staphylococcus aureus [12]) was “Active” and the Activity (Staphylococcus aureus [13]) was “Time-dependent-effect”. The Activity (Escherichia coli [14]) was 100%, the Activity (Cell membrane [15]) was “Active” and the Activity (Cell membrane [16]) was “Active”. The Activity (Cell membrane [17]) was “Active”, the Activity (Cell membrane [18]) was “Active” and the Activity (Cell membrane [19]) was “Active”. The Activity (Cell membrane [20]) was “Active”, the Activity (Escherichia coli [21]) was “inactive” and the Activity (Cell membrane [22]) was “Active”. The Activity (Staphylococcus aureus [23]) was “Dose-dependent-effect”, the Activity (Escherichia coli [24]) was “Active” and the Activity (Escherichia coli [25]) was “Dose-dependent-effect”. The Activity (Staphylococcus aureus [26]) was “Active”, the Activity (Escherichia coli [27]) was “Active” and the “fractional inhibitory concentration index (FICI)” value (Staphylococcus aureus [28]) was 0.75. For the same compound, the Activity (Escherichia coli [29]) was “Active”, the Activity (Escherichia coli [30]) was “Active” and the Activity (Escherichia coli [31]) was “Active”. For the same compound, the Activity (Escherichia coli [32]) was “Active”, the Activity (Escherichia coli [33]) was “Active” and the Activity (Escherichia coli [34]) was 100%. The Activity (Escherichia coli [35]) was “Active”, the Activity (Escherichia coli [36]) was “Active” and the Activity (Escherichia coli [37]) was “Active”. The Activity (Escherichia coli [38]) was “Active”.

From ChEMBL document CHEMBL6134890, “Terminally Symmetric β-Turn Peptides for Multidrug-Resistant Bacterial Infections” (J Med Chem, 2025)
